Measurements published in patent US8535897B2, “Assays for non-apoptotic cell death and uses thereof” (The Trustees of Columbia University in the City of New York, priority 2006, dated 2013).

How the values were obtained:
VDAC3 = test: VDAC isoform levels after erastin treatment (quantitative 2D western); format: cell-based, human; details: BJ-TERT/LT/ST/RASV12 cells
Description: (§1) (a) Quantitative western blot of VDAC/eif4E protein ratio in engineered BJ-derived cells. (b) Identification of VDAC isoforms in BJ-TERT/LT/ST/RAS^V12 cells using 2-D electrophoresis. i) VDAC1, VDAC2 and VDAC3 were detected by a rabbit polyclonal VDAC antibody (Abcam/ab3434), ii) VDAC1 was detected by a mouse monoclonal VDAC1 antibody (Calbiochem/529534), iii) VDAC2 was detected by a goat polyclonal VDAC2 antibody (Abcam/ab22170), iv) An illustration of 3 isoforms of VDAC separated by the 2-D gel electrophoresis. (c) BJ-TERT/LT/ST/RASV12 cells were treated with erastin for the indicated time and levels of each VDAC isoform determined by quantitative 2D western. (d,e) Infection with VDAC3 shRNA protects erastin-treated cells. 293T cells were transfected with shRNA-plasmid construct using FuGene and viral supernatant transferred to HT1080 cells, and treated with erastin dilutions and viability measured using Trypan Blue exclusion. […] (f) Quantitative RT-PCR measurements of mRNA levels of the 3 VDAC isoforms after infection with shVDAC3. Knockdown was determined by normalizing to the levels in the shGFP-infected control. […] (g) Mitochondria were purified from yeast expressing murine VDAC3 in place of yeast VDAC, and the rate of NADH uptake determined in the presence or absence of erastin, or in shocked mitochondria in which the outer membrane was disrupted. […]

VDAC2 = test: as above; format: cell-based, human; details: BJ-TERT/LT/ST/RASV12 cells
Description: as §1

U973 = test: Response of tumor cell lines to erastin (dose-response); format: cell-based; details: U937
Method: In certain aspects, the invention provides that erastin is lethal to tumor cells with activating mutations in proteins downstream of RAS proteins. Dose-response of 30 tumor cell lines to erastin was measured, and at least 50% inhibition of cell viability in 19 of the 30 tumor cell lines was formed. Numerous sarcoma-derived tumor cell lines were sensitive to erastin, consistent with the fact that erastin was discovered in an engineered tumor cell line created from human fibroblasts. Non-limiting examples include, HT1080 fibrosarcoma cells. HT1080 fibrosarcoma cells, which have a known activating mutation in NRAS, (Plattner, R. et al. Differential contribution of the ERK and JNK mitogen-activated protein kinase cascades to Ras transformation of HT1080 fibrosarcoma and DLD-1 colon carcinoma cells. Oncogene. 18: 1807-17 (1999), were quite sensitive to erastin. In order to determine whether RAS-activated signaling was modulated in cell lines that respond to erastin, the phosphorylation status of ERK1/2 in 12 sarcoma cell lines with a range of sensitivities to erastin was evaluated. In certain aspects, the invention provides a non-zero correlation, such as for example, a correlation coefficient of 0.41, between ERK1/2 phosphorylation status and erastin sensitivity in these cell lines.
Given that oncogenic RAS activates at least four downstream pathways, analysis was performed to identify which downstream effects were necessary for erastin sensitivity. In certain embodiments, the invention provides that erastin inhibits growth and kills genuine tumor cells with RAS mutations. In other embodiments, the invention provides measures of the dose-response of 29 tumor cell lines to erastin, wherein there is at least 50% inhibition of viability in 18 of the cell lines (Table 4). Numerous sarcoma-derived tumor cell lines were sensitive to erastin, consistent with the fact that erastin was discovered in an engineered tumor cell line created from human fibroblasts.

several tumor cell lines = test: Potency in several tumor cell lines; format: cell-based

CCOc1ccccc1-n1c(C(C)N2CCN(C(=O)COc3ccc(Cl)cc3)CC2)nc2ccccc2c1=O (stereo not shown) [erastin]
treatment time after which VDAC3 was no longer detectable (VDAC3): 8 h
treatment time after which VDAC2 became undetectable (VDAC2): 10 h
Erastin Sensitivity (maximum killing induced by erastin) (U973): 0.73
potency (several tumor cell lines): 1000 to 5000 nM
